Patent US20090035345A1, “Nuclear Receptors Agonists for Treatment of Atherosclerosis and/or Related Cardiovascular Disease” (ACADEMISCH MEDISCH CENTRUM, BUREAU, priority 2005, published 2009)

Assays:
human SMCs [1] = test: DNA synthesis assay ([3H]thymidine incorporation) in FBS-stimulated cultured SMCs; assay type: cell-based; conditions: for DNA synthesis in SMCs: increasing concentrations of C-DIM
Description: (§1) Human SMCs were explanted from umbilical cord arteries. Cells were cultured in DMEM (Invitrogen Life Technology, Breda, The Netherlands) with 10% (v/v) fetal bovine serum (FBS) with penicillin and streptomycin (Invitrogen). Cells were used at passages five to seven. […] To determine cellular viability, cells were washed with PBS and subsequently incubated in medium in the presence of 0.5-mg/ml 3-(4,5-dimethylthiazol-2-yl)-2,5-diphenyltetrazolium bromide (MTT; Sigma Diagnostics, St. Louis). After two hours, medium was discarded, formazan crystals were dissolved in isopropanol and optical density was measured at 590 nm. Apoptosis was induced by incubating cells for 24 hours in medium with 0.25 μM staurosporine (Sigma). Subsequently, SMCs were fixed, stained with Hoechst dye and the relative number of apoptotic nuclei was determined.
SMCs were seeded in 24-well plates at 1−4×10^4 cells per well and reached 60% to 70% confluency after 24 hours. SMCs were made quiescent by incubation for 24 hours in FBS-free medium. 6-MP was dissolved in dimethylsulfoxide and applied one hour before FBS stimulation. SMCs were stimulated for 24 hours with 10% (v/v) FBS and subsequently cells were labeled for 18 hours with 0.25 μCi/well [methyl-3H]thymidine (Amersham Biosciences, Buckinghamshire, UK). Incorporated radioactivity was precipitated for 30 min at 4° C. with 10% (w/v) trichloroacetic acid, washed twice with 5% (w/v) trichloroacetic acid, and dissolved in 0.5 N NaOH (0.5 mL per well). Incorporated [^3H]thymidine was measured by liquid-scintillation counting.
(§2) The following small interfering (si)RNA sequences were used: Nur77 siRNA, 5′-CAG UCC AGC CAU GCU CCU C dTdT-3′, as described previously^20, and control siRNA, 5′-CAG ACG AGC CUU GCU CGU C dTdT-3′ (Ambion Inc., Austin, Tex.). Five μg of siRNA was transfected into 0.5−1×10^6 SMCs, using Nucleofector reagent for SMCs (Amaxa) as per the manufacturer's recommendations. Total mRNA was isolated five days after transfection, using the absolutely mRNA miniprep kit (Stratagene, La Jolla, Calif.). Subsequent cDNA synthesis was performed using the iScript cDNA synthesis kit (Biorad, Hercules, Calif.). Real-time polymerase chain reaction (PCR) was performed using SYBR green mix (Biorad) in the MyIQ System (Biorad). Primers for Nur77 were as follows: (forward) 5′-[…]-3′ and (reverse) 5′-[…]-3′. As a control for equal amount of first strand cDNA in different samples we corrected for Ribosomal Phosphoprotein (P0) mRNA levels, which were determined with the following primers (forward) 5′-[…]-3′ and (reverse) 5′-[…]-3′.
as §2, with “iscript” for “iScript”

TR3-like factors = conditions: Chintharlapalli et al., J Biol. Chem. 2005; cited from earlier work
human SMCs [2] = test: Apoptosis of SMCs, Hoechst staining of nuclei; assay type: cell-based; conditions: 24 hours
Description: as §1

human SMCs [3] = test: SMC viability by MTT assay; assay type: cell-based; conditions: quiescent SMCs, 24 hours
Description: as §1

For `FC(F)(F)c1ccc(C(c2c[nH]c3ccccc23)c2c[nH]c3ccccc23)cc1` [C-DIM-CF3], the “DNA synthesis in SMCs” value (human SMCs [1]; serum) is given as “inhibit DNA synthesis in SMCs dose dependently” and the “activity of TR3-like factors” value (TR3-like factors) is given as “increase the activity of TR3-like factors”.
In the case of `c1ccc(C(c2c[nH]c3ccccc23)c2c[nH]c3ccccc23)cc1` [C-DIM-H], the “effectiveness in inhibiting DNA synthesis compared with the other C-DIMs” value (human SMCs [1]; serum, increasing concentrations) is given as “less effective”, the “DNA synthesis in SMCs” value (human SMCs [1]; serum) is given as “inhibit DNA synthesis in SMCs dose dependently” and the “activity of TR3-like factors” value (TR3-like factors) is given as “increase the activity of TR3-like factors”.
In the case of `COc1ccc(C(c2c[nH]c3ccccc23)c2c[nH]c3ccccc23)cc1` [C-DIM-OCH3], the “inhibition of DNA synthesis” value (human SMCs [1]; SMCs transfected with Nur77 (TR3)-specific siRNA) is reported as 40.1%, the “inhibition of DNA synthesis” value (human SMCs [1]; SMCs transfected with control siRNA) is reported as 49.7% and the “DNA synthesis in SMCs” value (human SMCs [1]; serum) is reported as “inhibit DNA synthesis in SMCs dose dependently”. For the same molecule, the “activity of TR3-like factors” value (TR3-like factors) was “increase the activity of TR3-like factors”.
With `CN[C@@H]1C[C@H]2O[C@@](C)([C@@H]1OC)n1c3ccccc3c3c4c(c5c6ccccc6n2c5c31)C(=O)NC4` [staurosporine] the induction of apoptosis (human SMCs [2]; SMCs, staurosporine 0.25 μM) was “induces apoptosis”, the “apoptosis (apoptotic nuclei)” value (human SMCs [2]; quiescent SMCs) was 50%±4% and the “cellular viability / cytotoxicity (MTT)” value (human SMCs [3]) was “reduces cell viability”. For the same molecule, the “reduction of number of viable cells (MTT)” value (human SMCs [3]) was 35%.
